SMILES strings stand for the structures. Values joined by “and” are separate entries in the source; they are usually repeats but may differ in a detail not shown here. Equal entries are not always repeated. Bounds are passed on as bounds.

The test system of test [1] is Staphylococcus aureus (ATCC 6538). Nature of the test: Antibacterial analysis per national standard WS/T 650-2019, viable count over 28 days. The test is classed as cell-based. To be noted: 4.0% (aqueous solution of surfactant, or 4.0% sodium benzoate comparative). The protocol:
(§1) Using the protocol set out in the national standard test WS/T 650-2019 “Evaluation Method of Antibacterial and Antibacterial Effects”, the amphiphilic biosurfactant produced as described above was analysed for antibacterial effects.

Test [2] concerns Candida albicans (ATCC 10231). The test is described as above. In kind it is cell-based. To be noted: 4.0% (aqueous solution of surfactant, or 4.0% sodium benzoate comparative). The protocol: as §1

As to `O=C([O-])c1ccccc1.[Na+]` [sodium benzoate], the “CFU/mL Staphylococcus aureus (ATCC 6538) Day 0” value in test [1] (Day 0) was 5.0 × 10^6 CFU/mL and 5.2 × 10^6 CFU/mL. Moreover, in test [1] (Day 14), the “CFU/mL Staphylococcus aureus (ATCC 6538) Day 14” value is 8.7 × 10^1 CFU/mL. Moreover, the “CFU/mL Staphylococcus aureus (ATCC 6538) Day 21” value in test [1] (Day 21) is given as under 10 CFU/mL. Besides, the “CFU/mL Candida albicans (ATCC 10231) Day 0” value in test [2] (Day 0) is recorded as 4.0 × 10^5 CFU/mL. The “CFU/mL Candida albicans (ATCC 10231) Day 7” value in test [2] (Day 7) is reported as 3.4 × 10^2 CFU/mL. The “CFU/mL Candida albicans (ATCC 10231) Day 14” value in test [2] (Day 14) is recorded as 3.0 × 10^1 CFU/mL. Moreover, the “CFU/mL Candida albicans (ATCC 10231) Day 21” value in test [2] (Day 21) is given as under 10 CFU/mL. Also, the “CFU/mL Candida albicans (ATCC 10231) Day 28” value in test [2] (Day 28) is under 10 CFU/mL.

The values above are taken from US20220064689A1, “AMPHOTERIC GLYCOLIPID BIOSURFACTANT AND ITS PREPARATION METHOD” (Mikros Biochem, priority 2020, published 2022).
